Source: article PMC10428205, “Cytotoxicity of Ruthenium(II) Arene Complexes Containing Functionalized Ferrocenyl β-Diketonate Ligands” (Organometallics, 2023)
Like-named read-outs stand apart in the source and are kept apart here.

Key:
MIA PaCa-2 [1] = type: cell-based
Description: LogP = Log ( [C]final ) Eqn1
96 h Chemosensitivity Studies
In vitro chemosensitivity tests were performed at both the University of Huddersfield and the Institute of Cancer Therapeutics, Bradford, in a sterile Class II Biological Safety Cabinet fitted with a HEPA filtered laminar airflow.
Cellular assays were conducted against human pancreatic carcinoma (MIA PaCa-2), human colorectal carcinoma p53-wildtype (HCT116 p53+/+), and human non-cancerous epithelial retinal cells (ARPE-19). […]
were obtained from the American Type Culture Collection and provided by the University of Huddersfield. All cell lines were routinely maintained as monolayer cultures in appropriate complete medium and maintained in either […]
T-25 or T-75 flasks at 37 °C and 5% CO2.
10% foetal calf serum. All medium was supplemented with sodium pyruvate (1 mM) and L-glutamine (2 mM), and prior to chemosensitivity studies, cell monolayers were passaged using Trypsin-EDTA and diluted to a […]
cells/mL cell suspension was added to each well and incubated for 24 h at 37 °C and 5% CO2. After 24 h, 100 mL of drug dilutions (fresh 100 mM stock solutions in DMSO) in media were added to the plates and then incubated for a further 96 h at 37°C and 5% CO2 (48 h + 48 h recovery period were used for the shorter exposures with MIA PaCa-2 cells only). After 96 h, 20 mL MTT (3-(4,5-dimethylthiazol-2-yl)-2,5-diphenyltetrazolium bromide, 5 mg/mL) was added to each well and incubated for 3 h at 37 °C and 5% CO2. All solutions were then removed from the 96-well plates via pipette and […] of DMSO added to each well to dissolve the purple formazan […]
FC spectrophotometer microplate reader. Using the blank and 100% cell controls, the % cell viability was determined [(abs. of compound containing wells – abs. media wells)/(abs. 100% cell suspension well control)] and from this the % cell death (100%- % cell viability) was calculated. On a logarithmic scale, the percentage cell death was plotted against the concentration of compound, and from this the half maximal inhibitory concentration (IC50) value was determined. Each of the experiments were performed in triplicate with mean values being stated as the IC50 ± Standard Deviation (SD). […]

MIA PaCa-2 [2] = experiment: Whole cell uptake by ICP-MS; type: cell-based, human; conditions: MIA PaCa-2, 10 μM, 48 h; for Whole cell uptake of Fe: ICP-MS
Description: Cellular assays were conducted against human pancreatic carcinoma (MIA PaCa-2), human colorectal carcinoma p53-wildtype (HCT116 p53+/+), and human non-cancerous epithelial retinal cells (ARPE-19). The ARPE-19 cells were obtained from the American Type Culture Collection and provided by the University of Huddersfield. All cell lines were routinely maintained as monolayer cultures in appropriate complete medium and maintained in either T-25 or T-75 flasks at 37 °C and 5% CO2. MIA PaCa-2 and ARPE-19 cells were cultured in high glucose DMEM-F12 medium containing 10% foetal calf serum, and HCT116 p53+/+ was cultured in RPMI 1640 supplemented with […]
10% foetal calf serum. […]
Cell uptake assays were conducted using MIA PaCa-2 cells and these were maintained as described above. All assays were conducted in 6-well plates and cell concentrations of 1 x 10^5 cells/ well in 2 mL of complete cell media. These cell suspensions were added to the wells and incubated at 37°C and 5% CO2 for 24 h. The media was then removed, and 2 mL of media/copper compound was added to each well. For each compound, a concentration of 10 µM of ligands L1, L2, L4, L7 or complexes C1, C2, C4, C7 were used. The cells were incubated with the complexes for 48 h, before removing and discarding the media. The cell monolayers were then individually washed with PBS (3 x 1 mL) and all waste discarded. 0.25% Trypsin-EDTA (0.5 mL) was then added until the cells were removed from the surface of the wells and then diluted with media (1.5 mL). The contents of each well were transferred to separate Falcon tubes and centrifuged at 1500 rpm for 5 min. The supernatant was removed, the cell pellets were resuspended in PBS (1 mL) and centrifuged again at 1500 rpm for 5 min (this was completed 3 times). On the final time, the cells were counted before the last centrifuge and then pelleted and store in the freezer for ICP-MS analysis. All assays were conducted in triplicate.
Samples were then taken up in Optima high purity nitric acid, diluted to 10 mL with 1mL rhodium internal standard and 9 mL 18.2 Ultrapure water. The elemental contents of the samples were determined using ICP-MS-QQQ Thermo TQ spectrometer. Measurement of iron mass 56 and ruthenium isotope mass 100 was conducted by comparing solutions of known concentration and intensities. A series of standard calibration curves allows the concentration of each element to be determined. The standards were prepared by weight using 1000 mg/kg reference solutions. Operating conditions: cooling flow rate, 14.0 L/min, auxiliary gas flow rate, 0.8 L/min; sampling Depth 5 mm, additional gas flow 75 %, spray chamber 2.7 degrees, nebulizer flow rate, 1.144 L/min pump speed 15 rpm, RF power of 1,550 W.
Analysis of cellula r DNA damage by the Comet assay […]

[3] = 96 h MTT, normoxic, ± SD, read-out: IC50 against MIA PaCa-2

Row | SMILES | Selectivity index (SI), IC50 ARPE-19 / IC50 MIA PaCa-2 (MIA PaCa-2 [1]; 96 h, * = minimum value as at least one IC50 > 100) | IC50 (MIA PaCa-2 [1]; [3]) [µM] | IC50 (MIA PaCa-2 [1]; MIA PaCa-2, 96 h, read-out: IC50 values ± SD (Table S14)) [µM] | Whole cell uptake of Fe (MIA PaCa-2 [2]) [ng Fe/10^6 cells] | increase in Fe uptake compared to the control (MIA PaCa-2 [2])
1 | [NH2][Pt]([NH2])([Cl])[Cl] [CDDP, cisplatin, reference compound] | 1.7 | 3.6 ± 0.7 | 3.6 ± 0.7 | – | –
2 | O=C(C=C(O)c1ccccc1)[c-]1cccc1.[Fe+2].c1cc[cH-]c1 [Complex L2] | – | 38.7 ± 0.8 | – | 2524 ± 458 | –
3 | O=C(C=C(O)C(F)(F)F)[c-]1cccc1.[Fe+2].c1cc[cH-]c1 [Complex L7] | – | 17 ± 1 | – | 1536 ± 202 | ca. 1.7 ×
4 | CC(O)=CC(=O)[c-]1cccc1.[Fe+2].c1cc[cH-]c1 [Complex L1] | – | 59 ± 2 | – | 2661 ± 974 | –
